According to publication PMC6327044, “A chemical biology screen identifies a vulnerability of neuroendocrine cancer cells to SQLE inhibition” (Nature Communications, 2019):

Columns and labels:
Assay in all cases: cells
Design in all cases: species or system panel of 482 human cancer cell lines; ATPLite luminescence growth inhibition after treatment, nine-point dilution curve, 482 cancer cell lines, 384-well
Conditions in all cases: 72 h, recommended growth medium
[1] = test system: 2313287_STOMACH
Protocol: (§1) Cells were seeded in recommended growth media in black 384-well tissue culture treated plates at 500 cells per well. Cells were equilibrated in assay plates via centrifugation and placed in incubators for 24 h before treatment. […] Treated assay plates were incubated with compounds for 72 h and subsequently were developed for endpoint analysis using ATPLite. Each compound was assessed using a nine-point dilution curve. Cells were defined as sensitive to a given compound based on GI75 < 2 μM with manual quality control of curve fit. GI75 is defined as a drug concentration that causes a 75% reduction in assay readout relative to dimethyl sulfoxide (DMSO)-treated controls. To identify novel cancer vulnerabilities, we screened a panel of 482 cell lines with a diverse set of metabolic inhibitors. […] Given that SCLC is thought to arise from neuroendocrine cells in the lung[9], we tested the NB-598 sensitivity in a panel of 42 SCLC cell lines. We calculated a quantitative metric of sensitivity for each cell line based on the area under the curve (AUC) of the mu/mu.max curve to more accurately capture the potency and extent of NB-598 effects. […] We categorized the SCLC cell lines as sensitive (5/42), moderate (11/42), and insensitive (26/42) (Fig. 1c and Supplementary Data 2) and focused all subsequent efforts on this indication. […] To further understand the patterns of sensitivity, we conducted RNA sequencing (RNA-Seq; Supplementary Data 3) and proteomic (Supplementary Data 4) characterization of the SCLC panel to identify unbiased expression signatures associated with enhanced NB-598 response (Supplementary Fig. 1 and Supplementary Fig. 2). Given the growing understanding that SCLC tumors can be further subdivided based on the status of lineage-defining transcription factors, ASLC1 and NEUROD1, we specifically investigated NB-598 response as the function of ASCL1 and NEUROD1 expression levels. […] To further dissect the NB-598 response within the ASCL1-high/NEUROD-low subset of 25 cell lines, we identified RNA-Seq and proteomics expression signatures associated with NB

[2] = test system: A427_LUNG
Protocol: as §1

[3] = test system: BEN_LUNG
Protocol: as §1

[4] = test system: CAL33_UPPER_AERODIGESTIVE_TRACT
Protocol: as §1

[5] = test system: DU4475_BREAST
Protocol: as §1

[6] = test system: HTK_HAEMATOPOIETIC_AND_LYMPHOID_TISSUE
Protocol: as §1

[7] = test system: HUNS1_HAEMATOPOIETIC_AND_LYMPHOID_TISSUE
Protocol: as §1

[8] = test system: LU139_LUNG
Protocol: as §1

[9] = test system: MINO_HAEMATOPOIETIC_AND_LYMPHOID_TISSUE
Protocol: as §1

[10] = test system: NCIH1048_LUNG
Protocol: as §1

[11] = test system: NCIH1568_LUNG
Protocol: as §1

[12] = test system: NCIH1836_LUNG
Protocol: as §1

[13] = test system: OAW28_OVARY
Protocol: as §1

[14] = test system: SKNDZ_AUTONOMIC_GANGLIA
Protocol: as §1

[15] = test system: TGBC11TKB_STOMACH
Protocol: as §1

[16] = test system: TMD8_HAEMATOPOIETIC_AND_LYMPHOID_TISSUE
Protocol: as §1

[17] = test system: UACC893_BREAST
Protocol: as §1

GI50 [14]: 12 nM
SMILES: CCN(C/C=C/C#CC(C)(C)C)Cc1cccc(OCc2cc(-c3ccsc3)cs2)c1 [NB-598]
GI50 [1]: 2190 nM | GI50 [2]: 5.55 nM | GI50 [3]: 21400 nM | GI50 [4]: 42.5 nM | GI50 [5]: 61.7 nM | GI50 [6]: 4770 nM | GI50 [7]: 170 nM | GI50 [8]: 32.1 nM | GI50 [9]: 33400 nM | GI50 [10]: 9060 nM | GI50 [11]: 7980 nM | GI50 [12]: 14.7 nM | GI50 [13]: 65400 nM | GI50 [15]: 2980 nM | GI50 [16]: 131 nM | GI50 [17]: 1190 nM
